The assay has as its target T1, human CD73 (Homo sapiens, UniProt P21589).
T1 construct: host or cells: CHO-K1 (suspension pool CHO-CD73)
T1 sequence (P21589 27-549): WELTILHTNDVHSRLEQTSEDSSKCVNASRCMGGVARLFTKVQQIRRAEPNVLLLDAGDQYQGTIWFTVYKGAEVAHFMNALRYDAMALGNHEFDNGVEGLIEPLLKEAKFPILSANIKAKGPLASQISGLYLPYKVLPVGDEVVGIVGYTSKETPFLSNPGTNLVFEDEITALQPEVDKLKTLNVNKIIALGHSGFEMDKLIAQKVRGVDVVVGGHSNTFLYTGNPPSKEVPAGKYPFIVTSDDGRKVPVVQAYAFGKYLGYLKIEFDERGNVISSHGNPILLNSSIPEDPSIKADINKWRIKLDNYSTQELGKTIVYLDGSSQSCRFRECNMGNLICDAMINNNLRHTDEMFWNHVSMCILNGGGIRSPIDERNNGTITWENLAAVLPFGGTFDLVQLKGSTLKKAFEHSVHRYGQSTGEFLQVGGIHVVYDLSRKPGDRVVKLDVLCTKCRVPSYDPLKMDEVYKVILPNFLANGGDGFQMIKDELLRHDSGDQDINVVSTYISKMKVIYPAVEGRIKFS
Description: Inhibition of ecto-5′-nucleotidase (CD73) activity in CHO-CD73 cells, phosphate colorimetric readout. It is filed as cell-based. As to conditions: CHO-K1 cells stably transfected with human CD73, 2500 cells per well, 25 μM AMP substrate, 50 minutes incubation at 37° C.; read-out: Potency: CD73 IC50. On the procedure: Inhibition of Ecto-5′-nucleotidase Activity. Compounds were evaluated to determine their ecto-5′-nucleotidase (CD73) inhibitory activity. Briefly, CHO-K1 cells stably transfected with human CD73 were generated by LakePharma (Belmont, CA) using molecular cloning of human CD73 (http://www.uniprot.org/uniprot/P21589) and mammalian transient expression vector (P21589.1). After antibiotic selection in CD OptiCHO cell media (Invitrogen, Catalog #12681-011) containing 5 μg/mL Puromycin and 200 μg/mL Hygromycin B, a suspension pool of CHO-CD73 cells was collected and frozen in 7.5% DMSO in cell media without antibiotics.
On the day of the experiment, one vial of CHO-CD73 cells was thawed and suspended in assay media which consisted of 20 mM HEPES, pH 7.4, 137 mM NaCl, 5.4 mM KCl, 1.3 mM CaCl2), 4.2 mM NaHCO3 and 0.1% glucose. To test the ability of compounds to inhibit CD73 enzymatic activity, 2 μL of 500 μM of compounds dissolved in DMSO (50×) were added to a 96-well polystyrene plate containing 58 μL of assay buffer. Next, 20 μL of CHO-CD73 cells in assay buffer were added to assay plate followed by 20 μL of 125 μM AMP (Adenosine 5′-monophosphate monohydrate) in assay buffer. Final assay conditions consisted of 2500 cells per well in 2% DMSO and 25 μM of AMP substrate. After 50 minutes of incubation (37° C. and 5% CO2) and centrifugation at 225×g for 5 mins, 80 μL of supernatant were transferred to a 96-well Spectra Plate (PerkinElmer, cat #6005640) which was pre-dispensed with 20 μL of PiColorLock Gold colorimetric assay reagents (Thermo, cat #30 300 30). The amount of inorganic phosphate was determined by reading the absorbance at 620 nm on an EnVision Multilabel Plate Reader (PerkinElmer). Enzymatic activity of CD73 was based on the amount of phosphate generated. Percentage of activity was calculated based on DMSO and no cells control wells. IC50 values of compounds were determined by four parameter non-linear regression fitting of percentage of activity in GraphPad Prism software.

Structures are written as SMILES. A value given as a limit tells only on which side of the number the result lay.

As to `O=P(O)(O)CP(=O)(O)OC[C@H]1O[C@@H](n2cnc3c(NC4CCCC4)nc(Cl)nc32)[C@H](O)[C@@H]1O`, the IC50 is below 100 nM.

`O=P(O)(O)CP(=O)(O)OC[C@H]1O[C@@H](n2cnc3c(NCc4ccc(C(F)(F)F)cc4)ncnc32)[C@H](O)[C@@H]1O`: the IC50 was below 100 nM. In the case of `Cc1ccc(CNc2ncnc3c2ncn3[C@@H]2O[C@H](COP(=O)(O)CP(=O)(O)O)[C@@H](O)[C@H]2O)cc1` it was below 100 nM; in that of `O=P(O)(O)CP(=O)(O)OC[C@H]1O[C@@H](n2cnc3c(NCc4cc(Cl)cc(Cl)c4)ncnc32)[C@H](O)[C@@H]1O`, below 100 nM. The value for `Cc1nc(NCc2ccccc2)c2ncn([C@@H]3O[C@H](COP(=O)(O)CP(=O)(O)O)[C@@H](O)[C@H]3O)c2n1` was below 100 nM; that for `C=Cc1nc(NCc2ccccc2)c2ncn([C@@H]3O[C@H](COP(=O)(O)CP(=O)(O)O)[C@@H](O)[C@H]3O)c2n1` was below 100 nM.

On to `CCc1nc(NCc2ccccc2)c2ncn([C@@H]3O[C@H](COP(=O)(O)CP(=O)(O)O)[C@@H](O)[C@H]3O)c2n1`, for which the IC50 is below 100 nM. The value for `C=CCc1nc(NCc2ccccc2)c2ncn([C@@H]3O[C@H](COP(=O)(O)CP(=O)(O)O)[C@@H](O)[C@H]3O)c2n1` was below 100 nM; that for `CCCc1nc(NCc2ccccc2)c2ncn([C@@H]3O[C@H](COP(=O)(O)CP(=O)(O)O)[C@@H](O)[C@H]3O)c2n1` was below 100 nM. Regarding `COc1nc(NCc2ccccc2)c2ncn([C@@H]3O[C@H](COP(=O)(O)CP(=O)(O)O)[C@@H](O)[C@H]3O)c2n1`, the IC50 is below 100 nM.

In the case of `CNc1nc(NCc2ccccc2)c2ncn([C@@H]3O[C@H](COP(=O)(O)CP(=O)(O)O)[C@@H](O)[C@H]3O)c2n1`, the IC50 was below 100 nM. The value for `CN(C)c1nc(NCc2ccccc2)c2ncn([C@@H]3O[C@H](COP(=O)(O)CP(=O)(O)O)[C@@H](O)[C@H]3O)c2n1` was below 100 nM. The value for `O=P(O)(O)CP(=O)(O)OC[C@H]1O[C@@H](n2cnc3c(NCc4ccccc4)nc(N4CCCC4)nc32)[C@H](O)[C@@H]1O` was below 100 nM. The value for `O=P(O)(O)CP(=O)(O)OC[C@H]1O[C@@H](n2cnc3c(NCc4ccccc4)nc(N4CCCCC4)nc32)[C@H](O)[C@@H]1O` was below 100 nM; that for `O=P(O)(O)CP(=O)(O)OC[C@H]1O[C@@H](n2cnc3c(NCc4ccccc4)nc(N4CCOCC4)nc32)[C@H](O)[C@@H]1O` was below 100 nM; that for `CC(C)Sc1nc(NCc2ccccc2)c2ncn([C@@H]3O[C@H](COP(=O)(O)CP(=O)(O)O)[C@@H](O)[C@H]3O)c2n1` was below 100 nM.

Turning to `CC(C)S(=O)(=O)c1nc(NCc2ccccc2)c2ncn([C@@H]3O[C@H](COP(=O)(O)CP(=O)(O)O)[C@@H](O)[C@H]3O)c2n1`, the IC50 is 100 to 1000 nM.

In the case of `Nc1nc(F)nc2c1ncn2[C@@H]1O[C@H](COP(=O)(O)CP(=O)(O)O)[C@@H](O)[C@@H]1O`, the IC50 fell in the range of 100 to 1000 nM. The value for `Nc1ncnc2c1ncn2[C@@H]1O[C@H](COP(=O)(O)CP(=O)(O)O)[C@@H](O)[C@H]1F` was above 1000 nM; that for `Nc1nc(Cl)nc2c1ncn2[C@@H]1O[C@H](COP(=O)(O)CP(=O)(O)O)[C@@H](O)[C@@H]1F` was below 100 nM.

With `O=P(O)(O)CP(=O)(O)OC[C@H]1O[C@@H](n2cnc3c(NCc4ccccc4)nc(Cl)nc32)[C@@H](F)[C@@H]1O`, the IC50 was below 100 nM. The value for `CN(Cc1ccccc1)c1nc(Cl)nc2c1ncn2[C@@H]1O[C@H](COP(=O)(O)CP(=O)(O)O)[C@@H](O)[C@@H]1F` was below 100 nM.

For `CNc1nc(Cl)nc2c1ncn2[C@@H]1O[C@H](COP(=O)(O)CP(=O)(O)O)[C@@H](O)[C@@H]1F`, the IC50 is below 100 nM. In the case of `CCNc1nc(Cl)nc2c1ncn2[C@@H]1O[C@H](COP(=O)(O)CP(=O)(O)O)[C@@H](O)[C@@H]1F` it was below 100 nM; in that of `CC(C)Nc1nc(Cl)nc2c1ncn2[C@@H]1O[C@H](COP(=O)(O)CP(=O)(O)O)[C@@H](O)[C@@H]1F`, below 100 nM; in that of `O=P(O)(O)CP(=O)(O)OC[C@H]1O[C@@H](n2cnc3c(NCC4CC4)nc(Cl)nc32)[C@@H](F)[C@@H]1O`, below 100 nM. The value for `O=P(O)(O)CP(=O)(O)OC[C@H]1O[C@@H](n2cnc3c(NC4CCCC4)nc(Cl)nc32)[C@@H](F)[C@@H]1O` was below 100 nM; that for `O=P(O)(O)CP(=O)(O)OC[C@H]1O[C@@H](n2cnc3c(N[C@H]4CCOC4)nc(Cl)nc32)[C@@H](F)[C@@H]1O` was below 100 nM. Turning to `O=P(O)(O)CP(=O)(O)OC[C@H]1O[C@@H](n2cnc3c(N[C@@H]4CCOC4)nc(Cl)nc32)[C@@H](F)[C@@H]1O`, the IC50 was below 100 nM. The value for `O=P(O)(O)CP(=O)(O)OC[C@H]1O[C@@H](n2cnc3c(NC4CCOCC4)nc(Cl)nc32)[C@@H](F)[C@@H]1O` was below 100 nM; that for `O=P(O)(O)CP(=O)(O)OC[C@H]1O[C@@H](n2cnc3c(N4CCCC4)nc(Cl)nc32)[C@@H](F)[C@@H]1O` was below 100 nM; that for `O=P(O)(O)CP(=O)(O)OC[C@H]1O[C@@H](n2cnc3c(N4CCCCC4)nc(Cl)nc32)[C@@H](F)[C@@H]1O` was below 100 nM. In the case of `C[C@H](Nc1cc(Cl)nc2c1cnn2[C@@H]1O[C@H](COP(=O)(O)CP(=O)(O)O)[C@@H](O)[C@@H]1F)c1ccccc1` it was below 100 nM; in that of `C[C@@H](Nc1cc(Cl)nc2c1cnn2[C@@H]1O[C@H](COP(=O)(O)CP(=O)(O)O)[C@@H](O)[C@@H]1F)c1ccccc1`, below 100 nM; in that of `C[C@H](Nc1nc(Cl)nc2c1ccn2[C@@H]1O[C@H](COP(=O)(O)CP(=O)(O)O)[C@@H](O)[C@H]1O)c1ccccc1F`, below 100 nM. As for `C[C@H](Nc1nc(Cl)nc2c1ccn2[C@@H]1O[C@H](COP(=O)(O)CP(=O)(O)O)[C@@H](O)[C@H]1O)c1cccc(F)c1`, the IC50 was below 100 nM. The value for `C[C@H](Nc1nc(Cl)nc2c1ccn2[C@@H]1O[C@H](COP(=O)(O)CP(=O)(O)O)[C@@H](O)[C@H]1O)c1ccc(F)cc1` was below 100 nM. On to `C[C@@H](Nc1nc(Cl)nc2c1ccn2[C@@H]1O[C@H](COP(=O)(O)CP(=O)(O)O)[C@@H](O)[C@@H]1F)c1ccccc1`, for which the IC50 is below 100 nM. Turning to `C[C@H](Nc1nc(Cl)nc2c1ccn2[C@@H]1O[C@H](COP(=O)(O)CP(=O)(O)O)[C@@H](O)[C@@H]1F)c1ccccc1`, the IC50 was below 100 nM. As for `C[C@H](Nc1nc(Cl)nc2c1ccn2[C@@H]1O[C@H](COP(=O)(O)CP(=O)(O)O)[C@@H](O)[C@@H]1F)c1cccc(F)c1`, the IC50 was below 100 nM. In the case of `C[C@@H](Nc1nc(Cl)nc2c1ccn2[C@@H]1O[C@H](COP(=O)(O)CP(=O)(O)O)[C@@H](O)[C@@H]1F)c1ccc(F)cc1` it was below 100 nM; in that of `C[C@H](Nc1nc(Cl)nc2c1ccn2[C@@H]1O[C@H](COP(=O)(O)CP(=O)(O)O)[C@@H](O)[C@@H]1F)c1ccc(F)cc1`, below 100 nM; in that of `C[C@H](Nc1nc(Cl)nc2c1ccn2[C@@H]1O[C@H](COP(=O)(O)CP(=O)(O)O)[C@@H](O)[C@@H]1F)c1ccccc1F`, below 100 nM. The value for `C[C@@H](Nc1nc(Cl)nc2c1ccn2[C@@H]1O[C@H](COP(=O)(O)CP(=O)(O)O)[C@@H](O)[C@@H]1F)c1ccccc1F` was below 100 nM.

Regarding `C[C@@H](Nc1nc(Cl)nc2c1ccn2[C@@H]1O[C@H](COP(=O)(O)CP(=O)(O)O)[C@@H](O)[C@@H]1F)c1cccc(F)c1`, the IC50 is below 100 nM. With `O=P(O)(O)CP(=O)(O)OC[C@H]1O[C@@H](n2cnc3c(NC4CCCC4)nc(Cl)cc32)[C@H](O)[C@@H]1O`, the IC50 was below 100 nM. For `O=P(O)(O)CP(=O)(O)OC[C@H]1O[C@@H](n2cnc3c(NC4CCCC4)nc(Cl)cc32)[C@@H](F)[C@@H]1O`, the IC50 was below 100 nM. Turning to `CN(c1nc(Cl)cc2c1ncn2[C@@H]1O[C@H](COP(=O)(O)CP(=O)(O)O)[C@@H](O)[C@@H]1F)C1CCCC1`, the IC50 is below 100 nM. With `O=P(O)(O)CP(=O)(O)OC[C@H]1O[C@@H](n2ncc3c(NC4CCCC4)ncnc32)[C@H](O)[C@@H]1O`, the IC50 was below 100 nM.

Usually IC50 stands for the midpoint of a concentration-inhibition curve.
